Patent US20050026958A1, “Methods of therapeutic treatment using amounts of retinoid components” (Allergan, Inc., priority 2003, published 2005)

Key:
RXR retinoid receptors = details: cited from earlier work
patients (psoriasis) = assay: Adverse event monitoring in Phase 3 studies of orally administered tazarotene for psoriasis (Table 1); format: in vivo, human; details: Taz 4.5 mg, combined Studies 1 and 2 (N = 348)
Procedure: A series of Phase 3 studies are conducted on orally administered tazarotene for the treatment of psoriasis. Adverse events (side effects) are monitored. In addition, published data for acitretin's side effects are also considered.

patients = assay: Two placebo-controlled 24-week safety studies of oral tazarotene plus 16- to 24-week dose-response evaluations (Example 3); format: in vivo, human; details: 4.5 mg orally once daily vs placebo
Procedure: Two multicenter, double-blind, randomized, placebo-controlled 24-week studies of identical design are conducted to evaluate the safety of oral tazarotene. In addition, 16- to 24-week dose-response evaluations are performed.
In the two safety trials, the incidence of adverse side effects with a 4.5 mg dose administered orally once daily is compared to the incidence of the same side effects with a placebo. […] The majority of these were mild in severity and typical of adverse effects associated with oral retinoids.

[1] = test system: patients having nodulocystic acne; assay: Two placebo-controlled dose-ranging safety studies of oral tazarotene in nodulocystic acne (Example 4); format: in vivo, human; details: for joint disorder during treatment period: placebo 0%; for arthralgia during treatment period: placebo 6%; for myalgia during treatment period: placebo 9%; for asthenia during treatment period: placebo 13%; for dry skin during treatment period: placebo 19%; for headache during treatment period: placebo 28%; for cheilitis during treatment period: placebo 31%; for emotional lability (all cases mild): placebo 4%
Procedure: Two placebo-controlled dose-ranging studies are conducted to evaluate the safety of oral tazarotene in patients having nodulocystic acne. In the first study, patients receive orally administered tazarotene at daily doses of 0.4 mg to 2.8 mg in 96 (71+25) patients (12 weeks treatment plus 12 weeks post-treatment). In the second study, daily doses of 0.75 mg to 6 mg tazarotene are administered to 181 patients (24 weeks treatment plus 12 weeks post-treatment).

patients (acne) = assay: Adverse event monitoring in studies of orally administered tazarotene for acne (Table 2); format: in vivo, human; details: oral tazarotene for acne, combined Studies 1 and 2 (N = 223)
Procedure: Studies are conducted on orally administered tazarotene for the treatment of acne. Adverse events (side effects) are monitored.

sebum secretion [2] = assay: Sebum output by Sebutape patches in the Example 7 study; format: in vivo, human; details: oral tazarotene 0.75 to 6 mg once daily, maximum of 86 patients
Procedure: (§1) Sebum output is assessed every 4 weeks at selected centers using the Sebutape® patches, sold by Cuderm Corporation. Urinalysis, chemistry, and hematology values are monitored. Bone formation and resorption assessments (serum bone alkaline phosphatase and serum amino terminal telopeptides, respectively) at selected centers are monitored.

[3] = test system: patients with severe nodulocystic acne; assay: Multicenter double-blind randomized placebo-controlled study of oral tazarotene in severe nodulocystic acne (Example 7); format: in vivo, human
Excerpt: A multicenter, double-blind, randomized, placebo-controlled parallel-group study is undertaken to determine the efficacy of orally administered tazarotene in treating severe nodulocystic acne.
In addition, washout periods for other medications for this study are: 1 week for vitamin A supplements >5000 IU; 2 weeks for topical anti-acne medications (e.g., retinoids, azelaic acid, benzoyl peroxide); 2 weeks for topical or systemic antibiotic therapy that may alter the course of acne; and 6 months for systemic retinoids.
Patients are randomized to receive placebo or oral tazarotene (0.75, 1.5, 3, or 6 mg), in a 1:1:1:1:1 ratio once daily for 24 weeks. After this, the patients are followed without treatment for an additional 12 weeks. Patients discontinuing from the treatment period due to adverse effects or lack of efficacy are eligible for entry into the post-treatment phase.
In the study, overall acne severity is rated as: none (no inflammatory acne lesions); mild (few to several papules or pustules, no nodulocystic lesions); moderate (several to many papules or pustules, few to several nodulocystic lesions); and severe (numerous or extensive papules or pustules, many, for example, at least about 5 or at least about 10, nodulocystic lesions).
Treatment success is defined as at least moderate (about 50%) improvement on the following 7-point global response scale: • 0=completely cleared • 1=almost cleared (about 90% improvement) • 2=marked response (about 75% improvement) • 3=moderate response (about 50% improvement) • 4=slight response (about 25% improvement) • 5=condition unchanged • 6=condition worsened
In this study, facial nodulocystic lesion count includes lesions greater than 5 mm in size. Facial papular/pustular lesion count includes lesions less than or equal to 5 mm in size. Facial non-inflammatory lesion count includes open and closed comedones.
as §1
Bone mineral density of spine and proximal femur at selected centers is monitored. Ligament calcification or osteophyte formation (lateral X-ray of the cervical and thoracic spine, and ankle calcaneous) is monitored. Epiphyseal growth plate closure (internal oblique X-ray of the ankle in patients less than or equal to 21 years old) is monitored.

[4] = Food effect (high-fat meal vs fast) on pharmacokinetics of tazarotenic acid after 6.3 mg oral tazarotene; format: in vivo, human; details: healthy subjects
sebum secretion [5] = details: published reports (Geiger); cited from earlier work
[6] = oral tazarotene 0.4 to 6 mg daily

CC1(C)CC[S+]([O-])c2ccc(C#Cc3ccc(C(=O)O)cn3)cc21 (centres unmarked) [sulfoxide derivative]
activation of RXR retinoid receptors (RXR retinoid receptors): does not activate

CCOC(=O)c1ccc(C#Cc2ccc3c(c2)C(C)(C)CCS3)nc1 [tazarotene]
Atrophy of skin (patients (psoriasis)): 0 (0.0) number (%) of patients
Hyperesthesia (patients (psoriasis)): 0 (0.0) number (%) of patients
Paresthesia (patients (psoriasis)): 7 (2.0) number (%) of patients
incidence of ocular, auditory, or thyroid problems (patients): no statistically significant between-group differences
joint disorder during treatment period ([1]; 2.8 mg, n=11): 27%
arthralgia during treatment period ([1]; 2.8 mg, n=11): 9%
myalgia during treatment period ([1]; 2.8 mg, n=11): 0%
asthenia during treatment period ([1]; 2.8 mg, n=11): 0%
dry skin during treatment period ([1]; 2.8 mg, n=11): 18%
headache during treatment period ([1]; 2.8 mg, n=11): 9%
cheilitis during treatment period ([1]; 2.8 mg, n=11): 64%
emotional lability (all cases mild) ([1]; 3 mg group (1 patient)): 3%
depression ([1]; 3 mg group (3 patients: 2 mild, 1 severe), placebo 2%): 8%
joint disorder during treatment period ([1]; 3 mg, n=37): 14%
arthralgia during treatment period ([1]; 3 mg, n=37): 8%
myalgia during treatment period ([1]; 3 mg, n=37): 16%
asthenia during treatment period ([1]; 3 mg, n=37): 19%
dry skin during treatment period ([1]; 3 mg, n=37): 35%
headache during treatment period ([1]; 3 mg, n=37): 19%
cheilitis during treatment period ([1]; 3 mg, n=37): 78%
emotional lability (all cases mild) ([1]; 6 mg group (5 patients)): 14%
joint disorder during treatment period ([1]; 6 mg, n=36): 19%
arthralgia during treatment period ([1]; 6 mg, n=36): 28%
myalgia during treatment period ([1]; 6 mg, n=36): 25%
asthenia during treatment period ([1]; 6 mg, n=36): 19%
dry skin during treatment period ([1]; 6 mg, n=36): 50%
headache during treatment period ([1]; 6 mg, n=36): 36%
cheilitis during treatment period ([1]; 6 mg, n=36): 94%
severe dry skin ([1]; all groups): No patient has severe dry skin
changes in urinalysis, chemistry, or hematology measures (incl. liver function tests, triglycerides, total cholesterol, HDL cholesterol) [1, 6]: no consistent dose-related clinically significant changes
ligament calcification, osteophyte formation, changes in serum bone alkaline phosphatase, serum amino terminal telopeptides, bone density [1, 6]: not associated with any clinically significant
Conjunctivitis (patients (acne)): 0 (0.0) number (%) of patients
Irritation of eyes (patients (acne)): 0 (0.0) number (%) of patients
effect on sebum secretion relative to placebo (Sebutape method) (sebum secretion [2]): does not substantially reduce sebum secretion relative to placebo
patients withdrawing due to adverse events in treatment period ([3]; 0.75 mg group (2/35), placebo 0%): 6%
patients withdrawing due to adverse events in treatment period ([3]; 1.5 mg group (0/37)): 0%
incidence of treatment success (≧50% global improvement) vs placebo ([3]; 3 mg and 6 mg, week 24 and throughout post-treatment phase (p≦0.05)): significantly higher incidence of treatment success
patients withdrawing due to adverse events in treatment period ([3]; 3 mg group (2/37)): 5%
patients withdrawing due to adverse events in treatment period ([3]; 6 mg group (1/36)): 3%
bone formation and resorption (serum bone alkaline phosphatase, serum amino terminal telopeptides) ([3]; all treatment groups): do not appear to be altered
changes in urinalysis, chemistry, or hematology measures (incl. liver function tests, triglycerides, total cholesterol, HDL cholesterol) ([3]; all treatment groups): None of the treatment groups show any consistent clinically significant changes
ligament calcification, osteophyte formation, or changes in bone density ([3]; all treatment groups): None of the treatment groups show any clinically significant

CC1(C)CCSc2ccc(C#Cc3ccc(C(=O)O)cn3)cc21 [tazarotenic acid]
activation of RXR retinoid receptors (RXR retinoid receptors): does not activate
effect of high-fat meal on bioavailability or pharmacokinetics of tazarotenic acid ([4]; 6.3 mg oral tazarotene, single and multiple dose): does not substantially affect
average ratio of Cmax values (test/reference) ([4]; Day 0, 6.3 mg oral tazarotene after high fat breakfast vs 8-10 hour fast): 1.00

CC1=C(/C=C/C(C)=C/C=C/C(C)=C\C(=O)O)C(C)(C)CCC1 [Isotretinoin, isotretinoin]
inhibitory effect on the rate of sebum secretion (sebum secretion [5]): about 90%
